Source: ChEMBL document CHEMBL4261613, “Discovery of a potent orally bioavailable retinoic acid receptor-related orphan receptor-gamma-t (RORγt) inhibitor, S18-000003” (Bioorg Med Chem Lett, 2018)
Values after ≈ are worked out from the molar mass of the structure shown.

Tests used:
[1] = AUC in mouse at 30 mg/kg, po; type: ADME, organism-based; settings: in vivo
[2] = Tmax in mouse at 30 mg/kg, po; type: ADME, organism-based; settings: in vivo
Mus musculus [3] = test: In-vivo transrepression of RORgammat in mouse assessed as inhibition of IL23-stimulated IL17 production at 30 mg/kg, po administered 30 mins before and 6 hrs after IL-23 injection in skin intradermally measured after 24 hrs by ELISA relative to control; type: functional
[4] = biological target: T1, Oxysterols receptor LXR-alpha (Homo sapiens, UniProt Q13133); test: Transrepression of recombinant human GAL4-DBD fused LXRalpha LBD expressed in HEK293 cells after 20 hrs by luciferase reporter gene assay; type: cell-based
T1 sequence (Q13133 whole entry): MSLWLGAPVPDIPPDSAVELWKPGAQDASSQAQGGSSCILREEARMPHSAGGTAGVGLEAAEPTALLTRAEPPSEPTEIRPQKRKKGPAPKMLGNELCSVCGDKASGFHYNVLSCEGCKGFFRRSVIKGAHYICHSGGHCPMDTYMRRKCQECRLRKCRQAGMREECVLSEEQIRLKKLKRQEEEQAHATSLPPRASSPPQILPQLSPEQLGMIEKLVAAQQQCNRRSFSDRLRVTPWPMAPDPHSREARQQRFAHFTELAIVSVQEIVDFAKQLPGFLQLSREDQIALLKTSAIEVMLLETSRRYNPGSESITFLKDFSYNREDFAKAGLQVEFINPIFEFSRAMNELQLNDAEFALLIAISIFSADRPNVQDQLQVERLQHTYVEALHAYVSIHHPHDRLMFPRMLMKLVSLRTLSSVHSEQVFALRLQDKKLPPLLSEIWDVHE

[5] = AUC in mouse at 100 mg/kg, po; type: ADME, organism-based; settings: in vivo
[6] = Cmax in mouse at 30 mg/kg, po; type: ADME, organism-based; parameters: dose 30 mg/kg, route oral; settings: in vivo
[7] = Solubility of the compound in KH2PO4/Na2HPO4 buffer at pH 6.8 by shake-flask method; type: physicochemical
Mus musculus [8] = test: In-vivo transrepression of RORgammat in mouse assessed as inhibition of IL23-stimulated IL17 production at 100 mg/kg, po administered 30 mins before and 6 hrs after IL-23 injection in skin intradermally measured after 24 hrs by ELISA relative to control; type: functional
[9] = biological target: T2, Nuclear receptor ROR-gamma (Mus musculus, UniProt P51450); test: Transrepression of RORgammat in anti-CD3/CD28 stimulated C57BL/6 mouse CD4-positive T cells assessed as suppression of T cell differentiation to Th17 cells by measuring reduction in IL-17A level after 4 days by ELISA
T2 sequence (P51450 whole entry): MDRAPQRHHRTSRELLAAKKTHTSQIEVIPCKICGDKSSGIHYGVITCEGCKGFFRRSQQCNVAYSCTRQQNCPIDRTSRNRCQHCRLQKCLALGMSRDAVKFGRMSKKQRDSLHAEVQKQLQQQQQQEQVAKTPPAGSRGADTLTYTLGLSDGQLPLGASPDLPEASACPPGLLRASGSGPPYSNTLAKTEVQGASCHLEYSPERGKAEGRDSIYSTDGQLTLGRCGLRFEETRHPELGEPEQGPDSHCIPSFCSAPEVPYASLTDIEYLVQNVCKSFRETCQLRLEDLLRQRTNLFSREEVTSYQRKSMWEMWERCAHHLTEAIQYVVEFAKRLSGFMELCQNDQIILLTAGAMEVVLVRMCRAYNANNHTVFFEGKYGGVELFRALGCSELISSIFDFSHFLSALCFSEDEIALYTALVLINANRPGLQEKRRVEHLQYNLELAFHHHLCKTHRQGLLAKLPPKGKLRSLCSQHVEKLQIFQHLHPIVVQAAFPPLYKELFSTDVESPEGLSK

[10] = Solubility of the compound in NaCl/HCl buffer at pH 1.2 by shake-flask method; type: physicochemical
[11] = Half life in rat at 0.5 mg/kg, iv; type: ADME, organism-based; settings: in vivo
Mus musculus [12] = test: In-vivo transrepression of RORgammat in po dosed mouse assessed as inhibition of IL23-stimulated IL17 production administered 30 mins before and 6 hrs after IL-23 injection in skin intradermally measured after 24 hrs by ELISA; type: functional, organism-based
[13] = Tmax in mouse at 100 mg/kg, po; type: ADME, organism-based; settings: in vivo
[14] = biological target: T2, Nuclear receptor ROR-gamma; test: (§1) Transrepression of recombinant mouse GAL4-DBD fused RORgammat LBD expressed in HEK293 cells after 20 hrs by luciferase reporter gene assay; type: cell-based
[15] = biological target: T3, Nuclear receptor ROR-gamma (Mus musculus) (UniProt P51450); test: as §1; type: cell-based
T3 sequence (whole entry): T2 sequence (P51450 whole entry)

[16] = Cmax in mouse at 100 mg/kg, po; type: ADME, organism-based; parameters: dose 100 mg/kg, route oral; settings: in vivo

`CCS(=O)(=O)c1ccc(CC(=O)Nc2ccc(C(C)(C)C(=O)Nc3ccc(F)cc3F)c(F)c2)cc1` gave an AUC [1] of 43500 ng·h/mL, a Tmax [2] of 1.5 h and an inhibition in vivo at 30 mg/kg (Mus musculus [3]) of 41%. For the same molecule, the EC50 [4] was greater than 30000 nM, the AUC [5] was 96300 ng·h/mL and the Cmax [6] was 8350 ng/mL. It also gave a solubility thermodynamic [7] of 25 µM (≈ 13 µg/mL), an inhibition in vivo at 100 mg/kg (Mus musculus [8]) of 63% and an IC50 [9] of 200 nM. For the same molecule, the solubility thermodynamic [10] was 29 µM (≈ 15 µg/mL), the half-life [11] was 3.2 h and the inhibition (Mus musculus [12]) was “Dose-dependent effect”. For the same molecule, the Tmax [13] was 0.8 h, the IC50 [14] was 340 nM and the Efficacy [15] was 85%. It also gave a Cmax [16] of 17800 ng/mL.
With `CCS(=O)(=O)c1ccc(CC(=O)Nc2ccc(C(C)(C)C(=O)Nc3cc(C#N)ccn3)c(F)c2)cc1` the AUC [1] was 4740 ng·h/mL, the Tmax [2] was 0.5 h and the inhibition in vivo at 30 mg/kg (Mus musculus [3]) was 22%. It also gave an EC50 [4] greater than 30000 nM, an AUC [5] of 23000 ng·h/mL and a Cmax [6] of 2700 ng/mL. It also gave a solubility thermodynamic [7] of 9 µM (≈ 4.58 µg/mL), an inhibition in vivo at 100 mg/kg (Mus musculus [8]) of 38% and an IC50 [9] of 68 nM. For the same molecule, the solubility thermodynamic [10] was 30 µM (≈ 15.3 µg/mL), the half-life [11] was 2.9 h and the inhibition (Mus musculus [12]) was “Dose-dependent effect”. The Tmax [13] was 0.5 h, the IC50 [14] was 74 nM and the Efficacy [15] was 88%. It also gave a Cmax [16] of 8450 ng/mL.
With `CCS(=O)(=O)c1ccc(CC(=O)Nc2ccc(C(C)(C)C(=O)Nc3ccc(F)cc3)c(F)c2)cc1` the EC50 [4] was greater than 30000 nM, the solubility thermodynamic [7] was 16 µM (≈ 8.01 µg/mL) and the IC50 [9] was 420 nM. The solubility thermodynamic [10] was 26 µM (≈ 13 µg/mL), the half-life [11] was 2.5 h and the IC50 [14] was 250 nM. The Efficacy [15] was 85%.
